Source: paper PMC12670396, “Crizotinib- or Ceritinib-Conjugated Platinum(IV) Prodrugs As Potent Multiaction Agents Inducing Antiproliferative Effects in 2D and 3D Cancer Cell Models” (Journal of Medicinal Chemistry, 2025)

Legend:
CT26 and NCI-H2228 cells = test: Extracellular HMGB1 (ELISA); type: cell-based; conditions: IC50 concentrations, 24 h
Procedure: The amount of HMGB1 in the medium was determined using an enzyme-linked immunosorbent assay (ELISA).
CT26 and NCI-H2228 cells were seeded in 48-well plates at a density of 5 × 10^4 cells/well and grown overnight. […] Aliquots of the supernatants were then withdrawn and processed using the HMGB1 Express ELISA kit (TECAN) according to the manufacturer’s instructions. The final absorbance, proportional to the HMGB1 amount, was read at 420 nm using a multimode SPARK reader (TECAN).

CT26 cell line = test: MTT cytotoxic/antiproliferative activity, 72 h; type: cell-based, murine; conditions: Mus musculus
A549 = test: MTT cytotoxic/antiproliferative activity, 72 h; type: cell-based, human; conditions: Homo sapiens; A549, MTT, 72 h
MDA-MB-231 = test: MTT cytotoxic/antiproliferative activity, 72 h; type: cell-based, human; conditions: Homo sapiens; MDA-MB-231, MTT, 72 h
U87-MG = test: MTT cytotoxic/antiproliferative activity, 72 h; type: cell-based, human; conditions: Homo sapiens, U-87 MG, MTT, 72 h
Procedure: (§1) A panel of six cancer cell lines was used to evaluate the cytotoxic potential of the investigated compounds.
(§2) Cytotoxicity in hepatocyte-like cells (HLC). STEMdiff Hepatocyte Kit was used to generate HLC from human pluripotent stem cells. Cytotoxicity of several of the tested compounds in HLC was evaluated using the sulphorhodamine B assay.

[1] = test system: panel of six cancer cell lines; test: MTT, panel of six cancer cell lines (average, ranges); type: cell-based, human; conditions: Homo sapiens; average over six cancer cell lines; read-out: av cancer (average IC50 in cancer cells)
Procedure: as §1, §2

NCI-H2228 spheroids = test: Cytotoxicity in 3D spheroids, CellTiter-Glo 3D; type: cell-based, human; conditions: Homo sapiens, NCI-H2228 3D spheroids, 96 h
Procedure: (§3) In the 3D structure, the gradients of gases, nutrients, and therapeutics play a role in the final cytotoxicity of a compound.
(§4) A549 and NCI-H2228 cells were seeded in ultralow attachment, U-shape plates (Corning) at a density of 800 cells/well in the tumorsphere medium consisting of DMEM/F12 medium (Sigma), fibroblast growth factor (20 ng/mL; Sigma), epidermal growth factor 2 (10 ng mL^–1; Sigma), B27 supplement (1×; Gibco), bovine serum albumin, bovine serum albumin (BSA) (1.5 mg mL^–1; Sigma). […] CellTiter-Glo 3D viability assay was used for the experiment evaluation following the manufacturer’s instructions. The bioluminescence signal, proportional to the number of living cells, was measured using the luminescence reader SPARK, and IC50 values were calculated.

A549 spheroids = test: Cytotoxicity in 3D spheroids, CellTiter-Glo 3D; type: cell-based, human; conditions: Homo sapiens, A549 3D spheroids, 96 h
Procedure: as §3, §4

MET = target: T1, MET (Homo sapiens, UniProt P08581); test: Western blot of MET phosphorylation state; type: cell-based; conditions: NCI-H2228 lysates, IC50 concentrations, 24 h
T1 construct: Western blot analysis of the phosphorylation state of ALK and MET; endogenous in cells; host or cells: NCI-H2228
Procedure: (§5) Whereas the signals of pALK and pMET are decreased in the presence of the tested compounds, the overall amount of ALK and MET is not markedly changed.
(§6) NCI-H2228 cells were seeded in 6-well plates at a density of 2 × 10^5 cells/well and incubated overnight. […] The cells were then harvested and lysed using RIPA lysis buffer supplemented with protease and phosphatase inhibitors as recommended by the manufacturer. Protein extracts were resolved with SDS-PAGE, transferred to a PVDF membrane, and the respective proteins were detected with specific antibodies (anti-phosphoALK, anti-ALK, anti-phosphoMET, anti-MET, and anti-GADPH) and HRP-conjugated secondary antibodies. The signals were obtained with SignalFire ECL Reagent and recorded with an Amersham680 reader.

IMR-90 = test: MTT cytotoxicity in noncancerous cells, 72 h; type: cell-based, human; conditions: Homo sapiens, IMR-90, MTT
Procedure: (§7) Growth inhibition activity in cancer cell lines was compared with the activity to inhibit the proliferation of normal (noncancerous) cells, namely MRC-5, IMR-90, hTERT-HPNE, and MCF10A cells. Selectivity indexes (SI) were calculated as (IC50 in noncancerous cells)/(average IC50 in cancer cells). […] We further assessed the toxicity of several of the compounds in hepatocyte-like cells (HLC) generated from human pluripotent cells.
as §2

hTERT-HPNE = test: MTT cytotoxicity in noncancerous cells, 72 h; type: cell-based, human; conditions: Homo sapiens
Procedure: as §7, §2

MRC-5 = test: MTT cytotoxicity in noncancerous cells, 72 h; type: cell-based, human; conditions: Homo sapiens, MRC5, MRC-5, MTT
Procedure: as §7, §2

MCF10A = test: MTT cytotoxicity in noncancerous cells, 72 h; type: cell-based, human; conditions: Homo sapiens, MCF-10A
Procedure: as §7, §2

RD = test: MTT cytotoxic/antiproliferative activity, 72 h; type: cell-based, human; conditions: Homo sapiens, MTT, 72 h
[2] = test system: normal (noncancerous) cells MRC-5, IMR-90, hTERT-HPNE, MCF10A; test: MTT, noncancerous cell lines (average, selectivity index); type: cell-based, human
Procedure: as §7, with “pluripotent cells. […]” for “pluripotent cells.”

[3] = Cytotoxicity in hepatocyte-like cells, sulphorhodamine B assay; type: cell-based; conditions: hepatocyte-like cells from human pluripotent cells
Procedure: as §7, §2

ALK = target: T2, ALK (Homo sapiens, UniProt Q9HC35+Q9UM73); test: Western blot of ALK phosphorylation state; type: cell-based; conditions: NCI-H2228 lysates, IC50 concentrations, 24 h
T2 construct: Western blot detection of the ALK phosphorylation state in lysates of NCI-H2228 cells exposed to the tested compounds; endogenous in cells; host or cells: NCI-H2228
Procedure: as §5, §6

NCI-H2228 = test: MTT cytotoxic/antiproliferative activity, 72 h; type: cell-based, human; conditions: Homo sapiens; NCI-H2228, MTT, 72 h
HCT116 = test: MTT cytotoxic/antiproliferative activity, 72 h; type: cell-based, human; conditions: Homo sapiens, HCT-116; HCT116, MTT, 72 h
CHOK1 = test: MTT cytotoxicity in NER-proficient cells, 72 h; type: cell-based, Chinese hamster; conditions: Cricetulus griseus, CHO-K1
Excerpt: (§8) The cytotoxicity assay was also employed to determine whether DNA damage might be involved in the mechanism of action of the tested compounds. The Chinese hamster ovary MMC2 cell line harbors the ERCC3/XPB mutation, which renders it deficient in nucleotide excision repair (NER), whereas the parent line CHOK1 is proficient in this repair process. Thus, the MMC2 line is often more sensitive to agents causing DNA damage, especially NER-reparable DNA damage, than CHOK1. […] Phosphorylation of H2AX is a commonly used marker of DNA damage.
as §2

MMC2 = test: MTT cytotoxicity in NER-deficient cells, 72 h; type: cell-based, Chinese hamster
Excerpt: as §8, with “damage. […]” for “damage.”

T2 sequence (Q9HC35+Q9UM73 fused): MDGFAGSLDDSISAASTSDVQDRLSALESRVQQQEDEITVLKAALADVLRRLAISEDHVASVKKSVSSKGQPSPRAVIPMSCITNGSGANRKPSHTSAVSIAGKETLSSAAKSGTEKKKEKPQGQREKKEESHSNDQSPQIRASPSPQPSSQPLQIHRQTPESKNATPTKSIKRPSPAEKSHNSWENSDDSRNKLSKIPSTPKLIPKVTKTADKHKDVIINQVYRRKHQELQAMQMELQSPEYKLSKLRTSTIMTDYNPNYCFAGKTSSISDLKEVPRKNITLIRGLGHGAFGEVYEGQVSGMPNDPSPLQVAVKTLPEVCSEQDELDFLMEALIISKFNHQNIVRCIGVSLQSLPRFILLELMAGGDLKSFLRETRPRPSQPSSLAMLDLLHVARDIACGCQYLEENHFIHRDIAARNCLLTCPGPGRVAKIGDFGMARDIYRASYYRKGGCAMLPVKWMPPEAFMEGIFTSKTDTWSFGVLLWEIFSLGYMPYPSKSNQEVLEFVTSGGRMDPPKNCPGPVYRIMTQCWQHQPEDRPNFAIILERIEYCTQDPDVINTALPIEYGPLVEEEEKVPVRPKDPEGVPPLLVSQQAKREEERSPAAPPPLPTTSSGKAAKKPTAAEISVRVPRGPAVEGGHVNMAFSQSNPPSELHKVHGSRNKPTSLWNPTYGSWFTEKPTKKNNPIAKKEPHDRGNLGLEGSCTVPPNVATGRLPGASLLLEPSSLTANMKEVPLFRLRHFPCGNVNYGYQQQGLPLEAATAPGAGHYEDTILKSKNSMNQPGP
T1 sequence (P08581 25-1390): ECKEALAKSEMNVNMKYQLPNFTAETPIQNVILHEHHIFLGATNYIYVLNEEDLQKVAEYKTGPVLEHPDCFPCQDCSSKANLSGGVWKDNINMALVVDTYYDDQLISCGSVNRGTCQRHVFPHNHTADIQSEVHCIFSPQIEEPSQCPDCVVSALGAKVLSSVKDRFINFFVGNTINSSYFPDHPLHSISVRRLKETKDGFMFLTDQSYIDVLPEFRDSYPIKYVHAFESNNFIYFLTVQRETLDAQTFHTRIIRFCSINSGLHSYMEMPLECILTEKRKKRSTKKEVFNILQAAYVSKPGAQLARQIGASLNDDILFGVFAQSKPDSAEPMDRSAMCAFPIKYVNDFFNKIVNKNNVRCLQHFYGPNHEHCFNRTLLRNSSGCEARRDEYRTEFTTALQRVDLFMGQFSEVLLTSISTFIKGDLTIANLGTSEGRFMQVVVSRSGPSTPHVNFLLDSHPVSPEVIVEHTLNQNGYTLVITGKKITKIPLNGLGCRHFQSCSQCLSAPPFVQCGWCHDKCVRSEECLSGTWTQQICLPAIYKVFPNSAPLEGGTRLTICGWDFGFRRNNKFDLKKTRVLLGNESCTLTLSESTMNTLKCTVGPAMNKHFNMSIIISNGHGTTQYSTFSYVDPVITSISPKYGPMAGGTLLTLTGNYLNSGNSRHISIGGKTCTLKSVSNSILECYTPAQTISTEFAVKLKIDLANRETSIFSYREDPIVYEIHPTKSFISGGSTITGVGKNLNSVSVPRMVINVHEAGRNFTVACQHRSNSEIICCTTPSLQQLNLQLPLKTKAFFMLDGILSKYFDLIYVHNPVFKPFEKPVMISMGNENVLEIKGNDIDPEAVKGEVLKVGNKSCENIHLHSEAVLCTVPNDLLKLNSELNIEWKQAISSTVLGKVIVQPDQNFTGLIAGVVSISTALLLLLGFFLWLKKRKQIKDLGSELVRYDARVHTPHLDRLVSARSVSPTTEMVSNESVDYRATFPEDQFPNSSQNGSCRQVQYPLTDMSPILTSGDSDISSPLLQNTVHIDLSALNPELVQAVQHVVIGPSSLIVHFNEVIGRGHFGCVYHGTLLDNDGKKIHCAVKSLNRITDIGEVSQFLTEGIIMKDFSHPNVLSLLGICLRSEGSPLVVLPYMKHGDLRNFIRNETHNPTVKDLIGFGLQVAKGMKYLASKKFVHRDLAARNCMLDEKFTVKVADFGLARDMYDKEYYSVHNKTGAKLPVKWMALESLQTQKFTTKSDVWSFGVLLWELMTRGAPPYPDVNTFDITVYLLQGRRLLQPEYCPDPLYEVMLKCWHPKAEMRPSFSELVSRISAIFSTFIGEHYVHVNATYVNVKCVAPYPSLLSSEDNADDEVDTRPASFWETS

**Q.** Which results are given for `COc1cccc2c1C(=O)c1c(O)c3c(c(O)c1C2=O)C[C@@](O)(C(=O)CO)C[C@@H]3O[C@H]1C[C@H](N)[C@H](O)[C@H](C)O1` [DOX, doxorubicin]?
**A.** HMGB1 externalization relative to nontreated control (CT26 and NCI-H2228 cells): highest increase; IC50 (CT26 cell line): 2100 ± 300 nM

**Q.** With `Cc1cc(Nc2ncc(Cl)c(Nc3ccccc3S(=O)(=O)C(C)C)n2)c(OC(C)C)cc1C1CCNCC1` [compound 5, ceritinib] as the molecule, how does the IC50 (A549) read?
**A.** 900 ± 200 nM

**Q.** And the IC50 (MDA-MB-231)?
**A.** 1400 ± 900 nM

**Q.** What about the IC50 (U87-MG) of the same molecule?
**A.** 1100 ± 1000 nM

**Q.** And the IC50 [1]?
**A.** 1100 nM

**Q.** What about the IC50 (NCI-H2228 spheroids) of the same molecule?
**A.** 750 ± 90 nM

**Q.** What about the IC50 (A549 spheroids) of the same molecule?
**A.** 2300 ± 800 nM

**Q.** And the “phosphorylation of MET” value (MET)?
**A.** inhibit the phosphorylation

**Q.** And the IC50 (IMR-90)?
**A.** 3700 ± 400 nM

**Q.** And the IC50 (hTERT-HPNE)?
**A.** 4100 ± 200 nM

**Q.** And the IC50 (MRC-5)?
**A.** 2200 ± 500 nM

**Q.** What about the IC50 (MCF10A) of the same molecule?
**A.** 3400 ± 900 nM

**Q.** What about the IC50 (RD) of the same molecule?
**A.** 1500 ± 300 nM

**Q.** What about the IC50 ([2]; Homo sapiens, average over MRC-5, IMR-90, hTERT-HPNE, MCF10A, read-out: av norm (average IC50 in noncancerous cells)) of the same molecule?
**A.** 3400 nM

**Q.** And the “SI, selectivity index” value ([2]; IC50(normal cells)/averageIC50(cancer cells))?
**A.** 3.0

**Q.** What about the IC50 [3] of the same molecule?
**A.** 8000 ± 3000 nM

**Q.** What about the “phosphorylation of ALK” value (ALK) of the same molecule?
**A.** inhibit the phosphorylation

**Q.** And the IC50 (NCI-H2228)?
**A.** 510 ± 40 nM

**Q.** And the IC50 (HCT116)?
**A.** 900 ± 200 nM

**Q.** And the IC50 (CT26 cell line)?
**A.** 1200 ± 300 nM

**Q.** What about the IC50 (CHOK1) of the same molecule?
**A.** 1400 ± 600 nM

**Q.** What about the IC50 (MMC2; Cricetulus griseus, MMC2 (NER deficient), MTT, 72 h) of the same molecule?
**A.** 1300 ± 300 nM

**Q.** And the “Index F” value (MMC2; IC50(CHOK1)/IC50(MMC2))?
**A.** 1.08
